# According to patent publication US12128035B2, “Activating pyruvate kinase R” (Novo Nordisk Health Care AG, priority 2021, dated 2024):
# Legend:
# [1] = test system: p50 (PO2 at 50% hemoglobin saturation); assay: Phase 1: p50 (oxygen affinity) in SCD patients; assay type: in vivo, human
# Procedure: In SCD patients, the mean absolute change in p50, relative to baseline, measured 24 hours after a single 700 mg dose of Compound 1, was −4 mmHg.
# With respect to the bar graphs representing the “Untreated” and “Treated” subjects in the SCD MAD cohort, the bar on the left side represents the P50 measured Pre-Dose, and the bar on the right side represents the P50 measured after 14 days of Compound 1, 300 mg once daily. SCD RBCs have higher P50 at baseline compared to HV RBCs. In the MAD cohort in SCD patients (300 mg QD for 14 days), the mean absolute change in p50, relative to baseline, measured 24 hours after the final dose of Compound 1, was −4 mmHg.
# The oxygen affinity of RBCs was measured in patient blood using a Hemox Analyzer (TCS Scientific Corp.), an automatic system for the recording of blood oxygen equilibrium curves and related phenomena. The Hemox Analyzer was used according to standard methods to determine the hemoglobin-oxygen dissociation curves for whole blood samples, numerically characterized by the p50, the partial pressure of oxygen at which hemoglobin is 50% saturated. […] In the case of hemoglobin, the wavelength of maximum absorbance is the measuring wavelength (560 nm), while the reference wavelength is at the isosbestic point at (570 nm). The absorbance at the isosbestic point remains unchanged during the deoxygenation process of the hemoglobin, however the measuring wavelength (560 nm) undergoes a drastic change in absorbance. This change is detected by the electronic circuitry and is plotted as the log/ratio change between the two wavelengths. The log/ratio measurement at 560 nm and 570 nm is utilized to measure the optical absorbance change during the deoxygenation of the hemoglobin. Simultaneously with the measurement of the hemoglobin absorbance, the oxygen concentration is directly measured in the sample using a Clark electrode. […]
# [2] = test system: p50 (PO2 at 50% hemoglobin saturation); assay: Phase 1 SAD/MAD: p50 (Hemox Analyzer) in healthy volunteers; assay type: in vivo, human; conditions: for Mean p50 Value: 24 hours after first dose on day 14; for Mean Absolute Change in p50 / Mean Percentage Change in p50: 24 hours after first dose on day 14, relative to baseline; for median reduction in p50: all dose levels; for Mean Absolute Change in p50 (mmHg): 24 hours after dose, relative to baseline
# Procedure: In the SAD cohorts, the subjects' p50 (PO2 at 50% hemoglobin saturation) were determined 24-hours post-dose. p50 measured 24 hours after a single dose of Compound 1 were reduced at all dose levels tested (median reduction ranged from ˜3-5 mmHg). Table 17 reports the mean absolute change in p50, relative to baseline, measured 24 hours after a single dose of Compound 1 (200 mg, 400 mg, 700 mg, or 1000 mg) or placebo in healthy volunteers.
# In the MAD cohorts, the subjects' p50 (PO2 at 50% hemoglobin saturation) were determined on day 14. p50 values measured after 14 days of twice daily dosing were reduced at all dose levels tested (median reduction ranged from ˜3-5 mmHg). Table 19 reports the mean p50 value and the mean absolute change and percentage change in p50, relative to baseline, measured 24 hours after the first dose given on day 14 in healthy volunteers who received daily doses of Compound 1 (100 mg BID, 200 mg BID, 300 mg BID, or 400 mg QD) or placebo for 14 days.
# The oxygen affinity of RBCs was measured in patient blood using a Hemox Analyzer (TCS Scientific Corp.), an automatic system for the recording of blood oxygen equilibrium curves and related phenomena. The Hemox Analyzer was used according to standard methods to determine the hemoglobin-oxygen dissociation curves for whole blood samples, numerically characterized by the p50, the partial pressure of oxygen at which hemoglobin is 50% saturated. The operating principle of the Hemox-Analyzer is based on dual-wavelength spectrophotometry for the measurement of the optical properties of hemoglobin and a Clark electrode for measuring the oxygen partial pressure in millimeters of mercury. Whole blood is diluted and placed into a special plastic cuvette that is maintained at 37° C. To perform the analysis, a beam of polychromatic light is passed through the cuvette and is made monochromatic prior to reaching the photomultiplier detectors. In the case of hemoglobin, the wavelength of maximum absorbance is the measuring wavelength (560 nm), while the reference wavelength is at the isosbestic point at (570 nm). The absorbance at the isosbestic point remains unchanged during the deoxygenation process of the hemoglobin, however the measuring wavelength (560 nm) undergoes a drastic change in absorbance. This change is detected by the electronic circuitry and is plotted as the log/ratio change between the two wavelengths. The log/ratio measurement at 560 nm and 570 nm is utilized to measure the optical absorbance change during the deoxygenation of the hemoglobin. Simultaneously with the measurement of the hemoglobin absorbance, the oxygen concentration is directly measured in the sample using a Clark electrode. Under normal atmospheric conditions of 760 mm of mercury the oxygen concentration (i.e., the oxygen partial pressure) is 149 mm of mercury. This saturation point is used for full-scale calibration of the computer prior to starting the plotting of the curve. When the oxygen is being replaced by an inert gas (nitrogen) in a continuous procedure, hemoglobin becomes deoxygenated.
structure (smiles),measurement,setting,value
"O=C([C@H](CO)c1ccccc1)N1CC2=C(C1)CN(S(=O)(=O)c1cnc3c(c1)OCCO3)C2 (single isomer, unassigned) [Compound 1]","mean absolute change in p50, relative to baseline","[1]; SCD 300 mg QD for 14 days, 24 hours after the final dose",−4 mmHg
same,p50 (Oxygen affinity curve),"[1]; SCD single 700 mg, Post-dose (24 hours), median (range), pre-dose 29.4 (26.1, 32.3)","25.8 (23.3, 26.8)"
same,"mean absolute change in p50, relative to baseline","[1]; SCD, 24 hours after single 700 mg dose",−4 mmHg
same,Mean p50 Value,[2]; HV 100 mg BID,22.96 mmHg
same,Mean Absolute Change in p50,[2]; HV 100 mg BID,−3.26 mmHg
same,Mean Percentage Change in p50,[2]; HV 100 mg BID,−12.42%
same,Mean p50 Value,[2]; HV 200 mg BID,22.33 mmHg
same,Mean Absolute Change in p50,[2]; HV 200 mg BID,−5.34 mmHg
same,Mean Percentage Change in p50,[2]; HV 200 mg BID,−19.33%
same,Mean p50 Value,[2]; HV 300 mg BID,21.69 mmHg
same,Mean Absolute Change in p50,[2]; HV 300 mg BID,−4.24 mmHg
same,Mean Percentage Change in p50,[2]; HV 300 mg BID,−16.05%
same,Mean p50 Value,[2]; HV 400 mg QD,21.75 mmHg
same,Mean Absolute Change in p50,[2]; HV 400 mg QD,−4.09 mmHg
same,Mean Percentage Change in p50,[2]; HV 400 mg QD,−15.76%
same,median reduction in p50,"[2]; HV MAD cohorts, after 14 days of dosing",3-5 mmHg
same,"Mean Maximum Percent Change from Baseline, p50","[2]; HV MAD, all doses and timepoints (N = 36)",−15.9%
same,median reduction in p50,"[2]; HV SAD, 24 hours after a single dose",3-5 mmHg
same,"Mean Maximum Percent Change from Baseline, p50","[2]; HV SAD, all doses and timepoints (N = 24)",−15.6%
same,Mean Absolute Change in p50 (mmHg),[2]; HV single 200 mg,−2.91 mmHg
same,Mean Absolute Change in p50 (mmHg),[2]; HV single 400 mg,−3.41 mmHg
same,Mean Absolute Change in p50 (mmHg),[2]; HV single 700 mg,−4.85 mmHg
same,Mean Absolute Change in p50 (mmHg),[2]; HV single 1000 mg,−5.05 mmHg
